{"source": "patent US11912688B2", "about": "“1, 3-dioxolane derivative” (TOHOKU UNIVERSITY, priority 2019, dated 2024)", "key": {"[1]": {"system": "iNOS transgenic mice", "experiment": "Test using mice developing diabetic nephropathy (iNOS transgenic mice)", "assay_type": "in vivo, mouse", "details": "6 mg/kg/day oral", "excerpt": "iNOS transgenic mice (Takamura T. et al., J Biol Chem. 1998; 273: 2493-2496; received from Emeritus Professor Hiroshi Okamoto, Tohoku University) were used as model mice. According to the literature of Takamura et al., breeding in which 4-week-old model mice (experimental group: n=8, control group: n=6) and a wild type group (n=8), which is non-transgenic mice born simultaneously with the model mice by mating iNOS transgenic mice and wild type (CD1 (ICR)) mice, were fed with high protein and high calorie diets was performed for 13 weeks. Compound 12 (D-532) was further orally administered to the experimental group in 6 mg/kg/day. As to the groups, the body weights were measured every day, and the blood sugar levels, the albumin in urine, and the creatinine in urine were measured in accordance with the usual method every 3 weeks. The groups were sacrificed after the breeding, the serum creatinine in the blood collected from the abdominal vena cava at the time of dissection was measured, and the gene expression in the kidneys collected at the time of dissection was analyzed. The kidney tissues were stained with HE and PAS and observed.\nFurther, the […] tissue section images were subjected to ImageJ (http://imagej.nih.gov/ij/) and measured according to the operation manual attached to ImageJ. When each glomerulus area (each group, n=100) and an area obtained by excluding regions of no interest such as vascular lumens and nuclei from the each glomerulus area were found, and the ratio therebetween, namely the PAS-positive area ratio in glomeruli, was found, the ratio increased in the model mice, and the improvement was meanwhile confirmed in the administered group."}, "[2]": {"system": "ChREBP", "experiment": "ChREBP target gene expression analysis in the kidney by quantitative PCR (iNOS mice)", "assay_type": "in vivo, mouse", "details": "iNOS mice of Test Example 3, quantitative PCR", "experimental": "(§1) In the mice used in Test Example 3, the expression variations of ChREBPβ and the TXNIP genes, which are target genes of ChREBP in the kidney, were analyzed by quantitative PCR in the method of the previous report (Genes to Cells 19 (2013) 52-65). The following primer set was used for the amplification of ChREBPβ.\nA primer set used for the amplification of the TXNIP gene is as mentioned above."}, "[3]": {"system": "iNOS transgenic mice", "experiment": "Observation of mouse kidney tissues by transmission electron microscope (iNOS mice)", "assay_type": "in vivo", "details": "iNOS mice of Test Example 3, transmission electron microscope; FIG. 16C", "experimental": "The kidneys of model mice in the administered group and the non-administered group, and a mouse in the wild type group in Test Example 3 were placed in a prefixing solution containing 2% PFA (FUJIFILM Wako Pure Chemical Corporation; 163-20145)/2.5% glutaraldehyde (TAAB Laboratories Equipment Ltd.; G017/1)/0.1 M cacodylate buffer solution (FUJIFILM Wako Pure Chemical Corporation; 036-18175) and treated at room temperature for 2 hours. The prefixed kidneys were washed with 0.1 M cacodylate buffer solution (containing 8% sucrose (FUJIFILM Wako Pure Chemical Corporation: 196-00015)) on ice for 15 minutes×4 times and treated with postfixing solution containing 1% osmium tetroxide (FUJIFILM Wako Pure Chemical Corporation; 154-01014) on ice for 90 minutes. The postfixed kidneys were washed with ultrapure water for 15 minutes×3 times, placed in aqueous 50, 60, 70, 80, 90, and 95% ethanol solutions each for 10 minutes×1 time, further in 100% ethanol for 20 minutes×3 times, and subjected to ethanol dehydration. […]"}, "[4]": {"system": "ChREBP", "experiment": "ChREBP target gene expression analysis in the kidney by quantitative PCR (db/db mice)", "assay_type": "in vivo, mouse", "details": "db/db mice of Test Example 7, quantitative PCR", "experimental": "as §1\nIn the mice used in Test Example 7, ChREBP target gene expression analysis was performed by the same method as in Test Example 4. FIG. 22 and FIG. 23 show the results."}, "[5]": {"system": "db/db mice", "experiment": "Relationship between blood sugar level and amount of albumin excreted in urine (ACR), regression lines, db/db mice", "assay_type": "in vivo, mouse", "details": "experimental vs control group, least squares regression, FIG. 25", "excerpt": "As to the blood sugar levels and the amounts of albumin excreted in urine (ACR) of the experimental group and the control group (non-administered group of db/db mice) in Test Example 7, a scatter diagram was created using SPSS, which is statistical analysis software, so that the abscissa axis is the blood sugar level, and the ordinate axis is the ACR, and regression lines (linear approximation by the least squares method) were found."}}, "data": [{"compound": "c1ccc(COC[C@H]2CO[C@@](Cn3nnc4ccccc43)(c3ccccc3)O2)cc1", "note": "[Example D-532, 1-(((2S,4S)-4-((benzyloxy)methyl)-2-phenyl-1,3-dioxolan-2-yl)methyl)-1H-benzo[d][1,2,3]triazole]", "values": [{"measurement": "blood sugar level", "setting": "[1]; 13 weeks, vs control group, FIG. 4", "value": "significantly low value as compared with the control group"}, {"measurement": "amount of albumin excreted in urine", "setting": "[1]; 13 weeks, vs control group, FIG. 5", "value": "significant low value"}, {"measurement": "increase in blood creatinine", "setting": "[1]; at dissection, FIG. 6", "value": "significantly improved"}, {"measurement": "expression of ChREBPβ gene in the kidney", "setting": "[2]; FIG. 10", "value": "decrease in expression"}, {"measurement": "expression of TXNIP gene in the kidney", "setting": "[2]; FIG. 11", "value": "decrease in expression"}, {"measurement": "structure of foot processes in kidney tissue", "setting": "[3]", "value": "suppressed the structural change of the foot processes"}, {"measurement": "expression of ChREBPβ gene in the kidney", "setting": "[4]; FIG. 22", "value": "Decrease in the expression"}, {"measurement": "expression of TXNIP gene in the kidney", "setting": "[4]; FIG. 23", "value": "Decrease in the expression"}, {"measurement": "effect on ACR relative to blood sugar level (gradient of the regression line)", "setting": "[5]", "value": "direct effect on the kidney"}]}]}
